Test results reported in ChEMBL document CHEMBL1131906, “Synthesis and structure-activity relationships of new second-generation taxoids” (Bioorg Med Chem Lett, 1999).

Legend:
[1] = Inhibitory activity against the growth of LCC6-WT (human breast carcinoma) cell line after 72 hours of drug exposure; type: functional
MCF7 [2] = experiment: Inhibitory activity against the growth of MCF-7R ( multi drug resistant human breast carcinoma) cell line after 72 hours of drug exposure; type: functional, cell-based; conditions: MCF7, 72 h
MCF7 [3] = experiment: Inhibitory activity against the growth of MCF-7 (human breast carcinoma) cell line after 72 hours of drug exposure; type: functional, cell-based; conditions: MCF7, 72 h
MCF7 [4] = experiment: Ratio of activities, drug resistant (R) to drug sensitive (S) carcinoma cell lines; type: functional, Homo sapiens
[5] = Inhibitory activity against the growth of LCC6-MDR (Multi Drug Resistant 1 transduced line) cell line after 72 hours of drug exposure; type: functional; conditions: Homo sapiens, LCC6MDR

Compound	IC50 [1] [nM]	IC50 (MCF7 [2]) [nM]	IC50 (MCF7 [3]) [nM]	Ratio (MCF7 [4])	IC50 [5] [nM]
CCC(=O)O[C@H]1C(=O)[C@@]2(C)C([C@H](OC(=O)c3cccc(OC)c3)[C@]3(O)C[C@H](OC(=O)[C@H](O)[C@@H](NC(=O)OC(C)(C)C)[C@H]4CC4(C)C)C(C)=C1C3(C)C)[C@]1(OC(C)=O)CO[C@@H]1C[C@@H]2O (some centres undefined)	0.48	1.5	0.6		
CCC(=O)O[C@H]1C(=O)[C@@]2(C)C([C@H](OC(=O)c3cccc(F)c3)[C@]3(O)C[C@H](OC(=O)[C@H](O)[C@H](C=C(C)C)NC(=O)OC(C)(C)C)C(C)=C1C3(C)C)[C@]1(OC(C)=O)CO[C@@H]1C[C@@H]2O (some centres undefined)	0.5				
COc1cccc(C(=O)O[C@H]2C3[C@](C)(C(=O)[C@H](OC(C)=O)C4=C(C)[C@@H](OC(=O)[C@H](O)[C@H](C=C(C)C)NC(=O)OC(C)(C)C)C[C@]2(O)C4(C)C)[C@@H](O)C[C@H]2OC[C@@]32OC(C)=O)c1 (some centres undefined)	0.6	2.3	0.8		
CCC(=O)O[C@H]1C(=O)[C@@]2(C)C([C@H](OC(=O)c3cccc(OC)c3)[C@]3(O)C[C@H](OC(=O)[C@H](O)[C@@H](NC(=O)OC(C)(C)C)C(F)F)C(C)=C1C3(C)C)[C@]1(OC(C)=O)CO[C@@H]1C[C@@H]2O (some centres undefined)	1.5	4.3	0.4		
COc1cccc(C(=O)O[C@H]2C3[C@](C)(C(=O)[C@H](OC(=O)C4CC4)C4=C(C)[C@@H](OC(=O)[C@H](O)[C@H](C=C(C)C)NC(=O)OC(C)(C)C)C[C@]2(O)C4(C)C)[C@@H](O)C[C@H]2OC[C@@]32OC(C)=O)c1 (some centres undefined)	1			2.9	2.9
C=CCC[C@H](NC(=O)OC(C)(C)C)[C@@H](O)C(=O)O[C@H]1C[C@@]2(O)[C@@H](OC(=O)c3cccc(OC)c3)C3[C@](C)(C(=O)[C@H](OC(=O)CC)C(=C1C)C2(C)C)[C@@H](O)C[C@H]1OC[C@@]31OC(C)=O (some centres undefined)	0.9	7.7	2		
CCC(=O)O[C@H]1C(=O)[C@@]2(C)C([C@H](OC(=O)c3cccc(F)c3)[C@]3(O)C[C@H](OC(=O)[C@H](O)[C@H](CC(C)C)NC(=O)OC(C)(C)C)C(C)=C1C3(C)C)[C@]1(OC(C)=O)CO[C@@H]1C[C@@H]2O (some centres undefined)	0.4				
C/C=C\[C@H](NC(=O)OC(C)(C)C)[C@@H](O)C(=O)O[C@H]1C[C@@]2(O)[C@@H](OC(=O)c3cccc(OC)c3)C3[C@](C)(C(=O)[C@H](OC(=O)CC)C(=C1C)C2(C)C)[C@@H](O)C[C@H]1OC[C@@]31OC(C)=O (some centres undefined)	1.2				
CCC(=O)O[C@H]1C(=O)[C@@]2(C)C([C@H](OC(=O)c3cccc(Cl)c3)[C@]3(O)C[C@H](OC(=O)[C@H](O)[C@H](C=C(C)C)NC(=O)OC(C)(C)C)C(C)=C1C3(C)C)[C@]1(OC(C)=O)CO[C@@H]1C[C@@H]2O (some centres undefined)	0.8				
CCC(=O)O[C@H]1C(=O)[C@@]2(C)C([C@H](OC(=O)c3cccc(N=[N+]=[N-])c3)[C@]3(O)C[C@H](OC(=O)[C@H](O)[C@H](CC(C)C)NC(=O)OC(C)(C)C)C(C)=C1C3(C)C)[C@]1(OC(C)=O)CO[C@@H]1C[C@@H]2O (some centres undefined)	1.1	2.1	1		
CCC(=O)O[C@H]1C(=O)[C@@]2(C)C([C@H](OC(=O)c3cccc(OC)c3)[C@]3(O)C[C@H](OC(=O)[C@H](O)[C@H](C=C(C)C)NC(=O)OC(C)(C)C)C(C)=C1C3(C)C)[C@]1(OC(C)=O)CO[C@@H]1C[C@@H]2O (some centres undefined)	1	0.33	0.36		
C=CC[C@H](NC(=O)OC(C)(C)C)[C@@H](O)C(=O)O[C@H]1C[C@@]2(O)[C@@H](OC(=O)c3cccc(OC)c3)C3[C@](C)(C(=O)[C@H](OC(=O)CC)C(=C1C)C2(C)C)[C@@H](O)C[C@H]1OC[C@@]31OC(C)=O (some centres undefined)	1.2	8.7	0.8		
CC(=O)O[C@H]1C(=O)[C@@]2(C)C([C@H](OC(=O)c3cccc(C)c3)[C@]3(O)C[C@H](OC(=O)[C@H](O)[C@H](C=C(C)C)NC(=O)OC(C)(C)C)C(C)=C1C3(C)C)[C@]1(OC(C)=O)CO[C@@H]1C[C@@H]2O (some centres undefined)	1.5	5	0.8		
C=Cc1cccc(C(=O)O[C@H]2C3[C@](C)(C(=O)[C@H](OC(=O)CC)C4=C(C)[C@@H](OC(=O)[C@H](O)[C@H](C=C(C)C)NC(=O)OC(C)(C)C)C[C@]2(O)C4(C)C)[C@@H](O)C[C@H]2OC[C@@]32OC(C)=O)c1 (some centres undefined)	2.9				
CCC(=O)O[C@H]1C(=O)[C@@]2(C)C([C@H](OC(=O)c3cccc(N=[N+]=[N-])c3)[C@]3(O)C[C@H](OC(=O)[C@H](O)[C@H](C=C(C)C)NC(=O)OC(C)(C)C)C(C)=C1C3(C)C)[C@]1(OC(C)=O)CO[C@@H]1C[C@@H]2O (some centres undefined)	0.9	1.1	0.9		
CC(=O)O[C@@]12CO[C@@H]1C[C@H](O)[C@@]1(C)C(=O)[C@H](O)C3=C(C)[C@@H](OC(=O)[C@H](O)[C@@H](NC(=O)OC(C)(C)C)c4ccccc4)C[C@@](O)([C@@H](OC(=O)c4ccccc4)[C@H]21)C3(C)C.O.O.O [DOCETAXEL]	1				120
CC(=O)O[C@H]1C(=O)[C@@]2(C)[C@H]([C@H](OC(=O)c3ccccc3)[C@]3(O)C[C@H](OC(=O)[C@H](O)[C@@H](NC(=O)c4ccccc4)c4ccccc4)C(C)=C1C3(C)C)[C@]1(OC(C)=O)CO[C@@H]1C[C@@H]2O [PACLITAXEL]	3.1				346
